This note sets out measurements from PubChem BioAssay AID192 (DTP/NCI, 2004).

The assay concerns BDF1 mice, B16 melanoma ip, median survival T/C. In words: NCI In Vivo Anticancer Drug Screen. Data for tumor model B16 Melanoma (intraperitoneal) in B6D2F1 (BDF1) mice. The conditions noted are these: endpoint: median survival time, higher = longer survival. The method in brief:
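Tumor-bearing mice received test compound or vehicle. Survival or tumor size was then measured in both groups. The treated-group figure was divided by the control-group figure.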

Where [1] appears, read: dose: 50.0 mg/kg/injection, schedule: Q01DX009 (ip), vehicle: Klucel (hydroxypropylcellulose) (HPC).
Where [2] appears, read: dose: 100.0 mg/kg/injection, schedule: Q01DX009 (ip), vehicle: Klucel (hydroxypropylcellulose) (HPC).
Where [3] appears, read: dose: 200.0 mg/kg/injection, schedule: Q01DX009 (ip), vehicle: Klucel (hydroxypropylcellulose) (HPC).
Setting [4] is: dose: 400.0 mg/kg/injection, schedule: Q01DX009 (ip), vehicle: Klucel (hydroxypropylcellulose) (HPC).
The mark [5] stands for this setting: dose: 1.0 mg/kg/injection, schedule: Q01DX009 (ip), vehicle: saline.
[6] abbreviates: dose: 2.0 mg/kg/injection, schedule: Q01DX009 (ip), vehicle: saline.
Setting [7] is: dose: 4.0 mg/kg/injection, schedule: Q01DX009 (ip), vehicle: saline.
[8] abbreviates: dose: 8.0 mg/kg/injection, schedule: Q01DX009 (ip), vehicle: saline.
Where [9] appears, read: dose: 25.0 mg/kg/injection, schedule: Q01DX009 (ip), vehicle: saline.
Setting [10] is: dose: 50.0 mg/kg/injection, schedule: Q01DX009 (ip), vehicle: saline.
The mark [11] stands for this setting: dose: 12.5 mg/kg/injection, schedule: Q01DX009 (ip), vehicle: saline.
[12] abbreviates: dose: 100.0 mg/kg/injection, schedule: Q01DX009 (ip), vehicle: saline.

Inconclusive results and toxic doses are left out.

For the compound `CCN(CC)C(=O)C1CN2CCc3cc(OC)c(OC)cc3C2CC1OC(C)=O` (stereo not drawn), the T/C was 95 % of control (dose: 0.39 mg/kg/injection, schedule: Q01DX009 (ip), vehicle: Klucel (hydroxypropylcellulose) (HPC)); 86 % of control (dose: 0.78 mg/kg/injection, schedule: Q01DX009 (ip), vehicle: Klucel (hydroxypropylcellulose) (HPC)); 96 % of control (dose: 1.56 mg/kg/injection, schedule: Q01DX009 (ip), vehicle: Klucel (hydroxypropylcellulose) (HPC)); 104 % of control (dose: 3.12 mg/kg/injection, schedule: Q01DX009 (ip), vehicle: Klucel (hydroxypropylcellulose) (HPC)); 100 % of control (dose: 6.25 mg/kg/injection, schedule: Q01DX009 (ip), vehicle: Klucel (hydroxypropylcellulose) (HPC)); 89 % of control under setting [1]. In addition, the T/C under setting [2] is 100 % of control.
Turning to `CC1NC(=O)NC1=O` (stereo not drawn), the T/C by setting is: under setting [2], 90 % of control; under setting [3], 100 % of control; under setting [4], 102 % of control.
As for `Cn1c(Cl)nc2c(Cl)nc(Cl)nc21`, the T/C reads like this: under setting [5], 105 % of control; under setting [6], 100 % of control; under setting [7], 97 % of control; under setting [8], 95 % of control; (dose: 16.0 mg/kg/injection, schedule: Q01DX009 (ip), vehicle: saline) 92 % of control; (dose: 32.0 mg/kg/injection, schedule: Q01DX009 (ip), vehicle: saline) 92 % of control.
For `O=S(=O)(O)O.[O]=[V]`, the T/C was 87 % of control (dose: 1.56 mg/kg/injection, schedule: Q01DX009 (ip), vehicle: saline with Tween-80); 97 % of control (dose: 3.13 mg/kg/injection, schedule: Q01DX009 (ip), vehicle: saline with Tween-80); 94 % of control (dose: 6.25 mg/kg/injection, schedule: Q01DX009 (ip), vehicle: saline with Tween-80).
Take `CN(CCN(C)Cc1ccccc1)Cc1ccccc1`: the T/C is, setting by setting: under setting [9], 100 % of control; under setting [10], 92 % of control.
Consider `CC(=O)N1CCC2(CC1)SSC1(CCN(C(C)=O)CC1)S2`, for which the T/C by setting is: (dose: 5.0 mg/kg/injection, schedule: Q01DX009 (ip), vehicle: saline with Tween-80) 105 % of control; (dose: 10.0 mg/kg/injection, schedule: Q01DX009 (ip), vehicle: saline with Tween-80) 112 % of control.
Take `CC(=O)O[C@@]1(C)[C@@H](C)C(=O)O[C@@H]2CCN3CC=C(COC(=O)[C@]1(C)O)[C@H]23`: the T/C is 119 % of control under setting [11], 119 % of control under setting [10] and 97 % of control under setting [12].
With `O=P(CCCCCCP(=O)(N1CC1)N1CC1)(N1CC1)N1CC1`, under setting [2], the T/C was 176 % of control.
For `CCCCCCCCCCCCCC(=O)CC`, the T/C runs as follows: (dose: 9.4 mg/kg/injection, schedule: Q01DX009 (ip), vehicle: saline with Tween-80) 95 % of control; (dose: 18.75 mg/kg/injection, schedule: Q01DX009 (ip), vehicle: saline with Tween-80) 87 % of control.
Regarding `O=C(Nc1cc(C(F)(F)F)ccc1Cl)c1ccccc1`, the T/C by setting is: under setting [2], 94 % of control; under setting [3], 91 % of control; under setting [4], 94 % of control.
As to `COc1c2occc2cc2ccc(=O)oc12`, the T/C is, setting by setting: (dose: 8.0 mg/kg/injection, schedule: Q01DX009 (ip), vehicle: saline with Tween-80) 104 % of control; (dose: 16.0 mg/kg/injection, schedule: Q01DX009 (ip), vehicle: saline with Tween-80) 115 % of control; (dose: 25.0 mg/kg/injection, schedule: Q01DX009 (ip), vehicle: saline with Tween-80) 103 % of control; (dose: 32.0 mg/kg/injection, schedule: Q01DX009 (ip), vehicle: saline with Tween-80) 95 % of control; (dose: 64.0 mg/kg/injection, schedule: Q01DX009 (ip), vehicle: saline with Tween-80) 114 % of control; (dose: 100.0 mg/kg/injection, schedule: Q01DX009 (ip), vehicle: saline with Tween-80) 95 % of control. Also, where the note is “dose: 128.0 mg/kg/injection, schedule: Q01DX009 (ip), vehicle: saline with Tween-80”, the T/C was 93 % of control.
Regarding `CCCC[S+](CCCC)CC(=O)c1ccc(-c2ccccc2)cc1`, the T/C by setting is: (dose: 1.56 mg/kg/injection, schedule: Q01DX009 (ip), vehicle: saline) 110 % of control; (dose: 3.13 mg/kg/injection, schedule: Q01DX009 (ip), vehicle: saline) 96 % of control; (dose: 6.25 mg/kg/injection, schedule: Q01DX009 (ip), vehicle: saline) 95 % of control; under setting [11], 94 % of control; under setting [9], 105 % of control.
Consider `Cc1c(Cl)cccc1N=Cc1ccccc1O`, for which the T/C under setting [1] was 106 % of control, the T/C under setting [2] is 108 % of control and the T/C under setting [3] was 97 % of control.
In the case of `COc1cccc2c1C(=O)c1c(O)c3c(c(O)c1C2=O)CC(O)(C(C)=O)CC3OC1CC(NC(=O)C(CCCCN)NC(=O)C2CCCN2)C(O)C(C)O1` (stereo not drawn), the T/C reads like this: (dose: 10.0 mg/kg/injection, schedule: Q01DX001 (ip), vehicle: water) 117 % of control; (dose: 20.0 mg/kg/injection, schedule: Q01DX001 (ip), vehicle: water) 123 % of control; (dose: 40.0 mg/kg/injection, schedule: Q01DX001 (ip), vehicle: water) 158 % of control; (dose: 80.0 mg/kg/injection, schedule: Q01DX001 (ip), vehicle: water) 191 % of control.
Take `OC(c1ccccc1)(c1c2ccccc2cc2ccccc12)C1CCC1` (stereo not drawn): the T/C reads like this: (dose: 75.0 mg/kg/injection, schedule: Q01DX009 (ip), vehicle: Klucel (hydroxypropylcellulose) (HPC)) 100 % of control; (dose: 150.0 mg/kg/injection, schedule: Q01DX009 (ip), vehicle: Klucel (hydroxypropylcellulose) (HPC)) 102 % of control; (dose: 300.0 mg/kg/injection, schedule: Q01DX009 (ip), vehicle: Klucel (hydroxypropylcellulose) (HPC)) 91 % of control.
With `COC(=O)/C=C/NC(=O)c1ccccc1C(=O)OC`, the T/C is 86 % of control (dose: 100.0 mg/kg/injection, schedule: Q04DX003 (ip), vehicle: Klucel (hydroxypropylcellulose) (HPC)); 97 % of control under setting [3]; 86 % of control (dose: 200.0 mg/kg/injection, schedule: Q04DX003 (ip), vehicle: Klucel (hydroxypropylcellulose) (HPC)).
For the compound `CS(=O)(=O)[O-].CS(=O)(=O)[O-].NC1CCCCC1N.[Pt+4]` (stereo not drawn), the T/C was 124 % of control (dose: 0.62 mg/kg/injection, schedule: Q01DX009 (ip), vehicle: other) and 159 % of control (dose: 1.25 mg/kg/injection, schedule: Q01DX009 (ip), vehicle: other).
In the case of `Cn1ccccc1=O`, the T/C reads like this: under setting [10], 124 % of control; under setting [12], 120 % of control; (dose: 200.0 mg/kg/injection, schedule: Q01DX009 (ip), vehicle: saline) 117 % of control.
On to `CN(C)C(=O)C1(c2ccc(Cl)cc2)CCN(CCCC(=O)c2ccc(F)cc2)CC1`, for which the T/C reads like this: (dose: 12.5 mg/kg/injection, schedule: Q01DX009 (ip), vehicle: Klucel (hydroxypropylcellulose) (HPC)) 94 % of control; (dose: 25.0 mg/kg/injection, schedule: Q01DX009 (ip), vehicle: Klucel (hydroxypropylcellulose) (HPC)) 94 % of control; under setting [1], 97 % of control.
Take `Cc1c(N)nc(C(CC(N)=O)NCC(N)C(N)=O)nc1C(=O)NC(C(=O)NC(C)C(O)C(C)C(=O)NC(C(=O)NCCc1nc(-c2nc(C(=O)NCCCNC(C)c3ccccc3)cs2)cs1)C(C)O)C(OC1OC(CO)C(O)C(O)C1OC1OC(CO)C(O)C(OC(N)=O)C1O)c1cnc[nH]1` (stereo not drawn): the T/C was 105 % of control (dose: 0.25 mg/kg/injection, schedule: Q01DX009 (ip), vehicle: saline); 102 % of control (dose: 0.5 mg/kg/injection, schedule: Q01DX009 (ip), vehicle: saline); 106 % of control under setting [5]; 110 % of control under setting [6]; 108 % of control under setting [7]; 111 % of control under setting [8].
As for `O=C(CBr)OCCOc1ccccc1`, the T/C (dose: 5.0 mg/kg/injection, schedule: Q01DX009 (ip), vehicle: saline sonified) is 87 % of control; the T/C (dose: 10.0 mg/kg/injection, schedule: Q01DX009 (ip), vehicle: saline sonified) is 90 % of control; the T/C (dose: 20.0 mg/kg/injection, schedule: Q01DX009 (ip), vehicle: saline sonified) is 102 % of control; the T/C (dose: 40.0 mg/kg/injection, schedule: Q01DX009 (ip), vehicle: saline sonified) is 92 % of control.
Regarding `Cc1ccc(C)c(NC(=O)Nc2ccccc2)c1`, the T/C by setting is: under setting [2], 96 % of control; under setting [3], 110 % of control; under setting [4], 96 % of control.
